Experiment [1] has as its system human monocyte-derived macrophages (MDMs). The following applies: phenelzine 20 μM, IL-4/IL-13 for 2 days. How it is done:
(§1) FIG. 6: MAO-A blockade for cancer immunotherapy-human TAM and clinical data correlation studies. a, Studying the MAOA gene expression in human M1- and M2-like macrophages. A transcriptome data set (GSE35449) was analyzed using the prioritization function of a Tumour Immune Dysfunction and Exclusion (TIDE) computational method. Heatmaps are presented, showing the M2-like/M1-like mRNA fold change of MAOA gene as well as a selected group of immunosuppressive, immunostimulatory, and immune checkpoints signature genes. b-d, Studying the MAO-A expression in in vitro differentiated and IL-4/IL-13-polarized human monocyte-derived macrophages (MDMs: n=4). MDMs were generated by culturing healthy donor peripheral blood monocytes over 6 days, followed by stimulation with IL-4 and IL-13 for another 2 days. NC, no cytokine stimulation. (b,c) QPCR analyses of MAOA mRNA expression in MDMs over the 6-day MDM differentiation culture (b) and post the IL-4/IL-13-induced polarization (c). (d) Western blot analyses of MAO-A protein expression in IL-4/IL-13-polarized MDMs. e-g, Studying the in vitro polarization of human MDMs (n=3). MDMs were stimulated with IL-4/IL-13 for 2 days, in the presence or absence of phenelzine (Phe, 20 μM) treatment. NC, no cytokine stimulation: NT, no phenelzine treatment. (e) FACS analyses of CD206 expression on MDMs. (f,g) QPCR analyses ALOX15 (f) and (CD200R1 (g) mRNA expression in MDMs. h-j, Studying the in vivo polarization of human macrophages in a human Tumour-TAM Co-Inoculation xenograft mouse model (n=4). (h) Experimental design. FACS-sorted healthy donor peripheral blood monocytes were mixed with human A375 melanoma cells and s.c. injected into NSG mice to form solid tumours, with or without phenelzine treatment (Phe or NT). (i,j) FACS analyses of CD206 (i) and CD273 (j) expression on TAMs (gated as hCD45^+hCD11b^+hCD14^+ cells of total TIIs) isolated from experimental mice at day 10. k-m, Studying the in vitro efficacy of phenelzine in reprogramming human TAMs and enhancing human T cell antitumour reactivity (n=6). (k) Schematics showing an in vitro 3D human tumour/TAM/T cell organoid culture. A375-A2-ESO, human A375 melanoma cell line engineered to express an NY-ESO-1 tumour antigen as well as its matching HLA-A2 molecule: ESO-T, human peripheral blood CD8 T cells engineered to express an NY-ESO-1-specific TCR: Polarized TAM, human MDMs polarized in vitro with IL-4/IL-13 in the presence or absence of phenelzine treatment (denoted as TAM Phe or TAM NT, respectively). Cells were mixed and cultured as organoids for two days before analysis. (l,m) FACS quantification of live tumour cells (gated as hCD45^− cells) and ESO-T cells (gated as hCD45^+hCD8^+ESO-TCR^+ cells). n, QPCR analyses of MAOA mRNA expression in human TAMs isolated from ovarian cancer patient tumour samples (n=4). Monocytes isolated from random healthy donor peripheral blood were included as controls (n=10). Mo, monocyte. o-r, Clinical data correlation studies. The correlation function of a TIDE computational method was utilized. The association between the intratumoural MAOA gene expression levels and overall survival (OS) of cancer patients was computed through the two-sided Wald test in the Cox-PH regression. For each patient cohort, tumour samples were divided into the MAOA-high (samples with MAOA expression one standard deviation above the average) and MAOA-low (remaining samples) groups, followed by analysing the OS of each group. TIDE analyses of an ovarian cancer patient cohort (GSE26712, n=182: o), a lymphoma patient cohort (GSE10846, n=388: p), a breast cancers patient cohort (GSE9893, n=148: q), and a melanoma patient cohort with anti-PD-1 therapy (PRJEB23709, n=41: r). Representative of 1 (n), 2 (b-d, h-j) and 3 (e-g, k-m) experiments. All data are presented as the mean±SEM. ns, not significant, *P<0.05, **P<0.01, and ***P<0.001, by 1-way ANOVA (l, m), 2-way ANOVA (e-g), or by Student's t test (i, j, n).

In experiment [2] the test system is A375-A2-ESO tumour cells / ESO-T cells / polarized MDMs. How it is done:
as §1

Experiment [3] relates to human TAMs. The following applies: A375 + human monocytes s.c. in NSG mice; phenelzine 30 mg/kg/day i.p.; day 10. The procedure: as §1
The mark [4] stands for this setting: ESO-T cells co-cultured with phenelzine-treated vs non-phenelzine-treated MDMs.

On to `NNCCc1ccccc1` [phenelzine], for which, in experiment [1], the “ALOX15 mRNA expression in MDMs (QPCR)” value is “decreased expression”, the “CD200R1 mRNA expression in MDMs (QPCR)” value was “decreased expression”, the “CD206 expression on MDMs (FACS)” value is listed as “decreased expression” and the “CD273 expression on MDMs (FACS)” value is given as “decreased expression”. Besides, in experiment [1], the “IL-4/IL-13-induced immunosuppressive polarization of MDMs” value is listed as “significantly inhibited”. In experiment [2] (setting [4]), the “CD25 expression on ESO-T cells” value is recorded as “increased”, the “CD62L expression on ESO-T cells” value was “decreased” and the ESO-T cell number result was “increased”. Besides, the “immunosuppressive effect of IL-4/IL-13-polarized MDMs on ESO-T cell-mediated killing of A375-A2-ESO tumour cells” value in experiment [2] (phenelzine treatment during MDM polarization, organoid cultured 2 days) is given as “largely alleviated”. Besides, in experiment [3], the “CD206 expression on human TAMs (FACS)” value is listed as “decreased expression”, the “CD273 expression on human TAMs (FACS)” value is listed as “decreased expression” and the “immunosuppressive polarization of human TAMs in vivo” value is “effectively suppressed”.

Source of the values: US20230391871A1, “MONOAMINE OXIDASE BLOCKADE THERAPY FOR TREATING CANCER THROUGH REGULATING TUMOR ASSOCIATED MACROPHAGES (TAMS)” (THE REGENTS OF THE UNIVERSITY OF CALIFORNIA, priority 2020, published 2023).
